Results published in article PMC11876601 (Molecular Systems Biology, 2025).
Like-named read-outs stand apart in the source and are kept apart here.

How the values were obtained:
Assay in all cases: Drug combination viability screen (ATPlite, 72 h);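 as to AUC: area under vehicle-normalized viability curve scaled 0 to 100 percent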;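 as to Curve bottom: fraction of vehicle control viability from four-parameter log-logistic fit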
Type in all cases: cell-based, human
Set-up in all cases: AUC: unit not given beside the values
[1] = test system: Colo-357 cells; conditions: for EC50: Homo sapiens, COLO357;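 as to AUC: area under vehicle-normalized viability curve scaled 0 to 100 percent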;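 as to Curve bottom: fraction of vehicle control viability from four-parameter log-logistic fit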
Method: (§1) Cell viability was assessed by measuring ATP levels to indicate metabolic activity.
(§2) Afterward, small amounts were transferred to 384-well intermediate plates (Greiner Bio-One GmbH, Germany). […] For drug combination screening, 1000 to 5000 cells were seeded into 384-well plates (CulturPlate™, Perkin Elmer, MA, USA) using a Multidrop™ Combi Reagent Dispenser (Thermo Scientific, MA, USA) in 50 µl medium per well 24 h prior to drug treatment (seeding densities see Appendix Table S1). […] The final DMSO concentration in each well was 0.2%. […] Eight wells per plate without library drug served as negative controls, and sixteen wells per plate containing 5 µM Staurosporine served as positive controls. Control plates not containing any drug were used to correct for incubation effects, and data quality was assessed by calculation of Z-prime of positive and negative controls according to1 Z-prime=1−3SDpos+3SDneg/[…] where SD is the standard deviation. […] Dose–response curves from the experimental and hypothetical data were compared, and shifts in AUC were used to describe combination effects (AUC∆ = AUChypothetical − AUCexperimental). […] Only combinations with R^2 > 0.8 in both conditions were considered in the synergy analysis.

[2] = test system: PANC-1 cells;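 as to AUC: area under vehicle-normalized viability curve scaled 0 to 100 percent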;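 as to Curve bottom: fraction of vehicle control viability from four-parameter log-logistic fit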
Method: as §1, §2

[3] = test system: Suit2-07 cells; conditions: for EC50: Homo sapiens;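 as to AUC: area under vehicle-normalized viability curve scaled 0 to 100 percent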;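 as to Curve bottom: fraction of vehicle control viability from four-parameter log-logistic fit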
Method: as §1, §2

[4] = test system: HuP-T4 cells; conditions: for EC50: Homo sapiens;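 as to AUC: area under vehicle-normalized viability curve scaled 0 to 100 percent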
Method: as §1, §2

[5] = test system: MiaPaCa-2 cells; conditions: for EC50: Homo sapiens;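 as to AUC: area under vehicle-normalized viability curve scaled 0 to 100 percent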
Method: as §1, §2

[6] = test system: BxPC-3 cells; conditions: for EC50: Homo sapiens, BXPC-3;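 as to AUC: area under vehicle-normalized viability curve scaled 0 to 100 percent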
Method: as §1, §2

`Nc1ccn([C@@H]2O[C@H](CO)[C@@H](O)C2(F)F)c(=O)n1` [GEM, Gemcitabine] gave an ATP luminescence signal ([1]; Colo-357, R1, 13.72 nM) of 68560, an ATP luminescence signal ([1]; Colo-357, R1, 41.15 nM) of 61560 and an ATP luminescence signal ([1]; Colo-357, R1, 123.46 nM) of 70640. The ATP luminescence signal ([1]; Colo-357, R1, 370.37 nM) was 48200, the ATP luminescence signal ([1]; Colo-357, R1, 1111.11 nM) was 53560 and the ATP luminescence signal ([1]; Colo-357, R1, 3333.33 nM) was 50680. The ATP luminescence signal ([1]; Colo-357, R1, 10000 nM) was 66360, the ATP luminescence signal ([1]; Colo-357, R2, 13.72 nM) was 110000 and the ATP luminescence signal ([1]; Colo-357, R2, 41.15 nM) was 110560. The ATP luminescence signal ([1]; Colo-357, R2, 123.46 nM) was 89840, the ATP luminescence signal ([1]; Colo-357, R2, 370.37 nM) was 97560 and the ATP luminescence signal ([1]; Colo-357, R2, 1111.11 nM) was 70040. It also gave an ATP luminescence signal ([1]; Colo-357, R2, 3333.33 nM) of 80720, an ATP luminescence signal ([1]; Colo-357, R2, 10000 nM) of 83360 and a Curve bottom ([1]; Colo-357, GEM curve fit) of 0.03. It also gave a Curve effect size ([1]; Colo-357, GEM curve fit) of 0.97, a Curve slope ([1]; Colo-357, GEM curve fit) of 3.24 and a Curve top ([1]; Colo-357, GEM curve fit) of 0.97. The AUC ([1]; Colo-357, GEM curve fit, in %) was 20.82, the EC50 ([1]; read-out: EC50) was 1.32 nM and the EC50 ([1]; read-out: pEC50 (converted)) was 1.32 nM. For the same compound, the EC50 ([2]; Homo sapiens, PANC-1, read-out: EC50,GEM) was at least 10 nM, the Reponse ([2]; PANC-1, R1, 13.72 nM) was 5718200 and the Reponse ([2]; PANC-1, R1, 41.15 nM) was 4879000. For the same compound, the Reponse ([2]; PANC-1, R1, 370.37 nM) was 4043760, the Reponse ([2]; PANC-1, R1, 1111.11 nM) was 3920600 and the Reponse ([2]; PANC-1, R1, 3333.33 nM) was 3788160. The Reponse ([2]; PANC-1, R1, 10000 nM) was 3980640, the AUC ([2]; PANC-1, GEM curve fit) was 85.88 and the Curve bottom ([2]; PANC-1, GEM curve fit) was 0.69. The Curve effect size ([2]; PANC-1, GEM curve fit) was 0.31, the Curve slope ([2]; PANC-1, GEM curve fit) was 1.11 and the Curve top ([2]; PANC-1, GEM curve fit) was 1.01. For the same compound, the Reponse ([2]; Panc-1, R2, 41.15 nM) was 5844240, the Reponse ([2]; Panc-1, R2, 123.46 nM) was 5369400 and the Reponse ([2]; Panc-1, R2, 370.37 nM) was 5134080. For the same compound, the Reponse ([2]; Panc-1, R2, 1111.11 nM) was 4763640, the Reponse ([2]; Panc-1, R2, 10000 nM) was 4614040 and the Reponse ([2]; Panc-1, replicate R2, dose 13.72 nM, raw signal) was 6385680. For the same compound, the EC50 ([3]; read-out: EC50) was 7.58 nM, the EC50 ([3]; read-out: pEC50 (converted)) was 7.59 nM and the Reponse ([3]; Suit2-07, R1, 13.72 nM) was 2323360. It also gave a Reponse ([3]; Suit2-07, R1, 41.15 nM) of 1614080, a Reponse ([3]; Suit2-07, R1, 123.46 nM) of 1487640 and a Reponse ([3]; Suit2-07, R1, 370.37 nM) of 1265760. The Reponse ([3]; Suit2-07, R1, 1111.11 nM) was 1242400, the Reponse ([3]; Suit2-07, R1, 3333.33 nM) was 1298400 and the Reponse ([3]; Suit2-07, R1, 10000 nM) was 913840. The Reponse ([3]; Suit2-07, replicate R2, dose 13.72 nM, raw signal) was 3086160, the Reponse ([3]; Suit2-07, replicate R2, dose 41.15 nM, raw signal) was 2294600 and the Reponse ([3]; Suit2-07, replicate R2, dose 123.46 nM, raw signal) was 1746480. The Reponse ([3]; Suit2-07, replicate R2, dose 370.37 nM, raw signal) was 1730640, the Reponse ([3]; Suit2-07, replicate R2, dose 1111.11 nM, raw signal) was 1568520 and the Reponse ([3]; Suit2-07, replicate R2, dose 3333.33 nM, raw signal) was 1439120. The Reponse ([3]; Suit2-07, replicate R2, dose 10000 nM, raw signal) was 1173920, the Curve bottom ([3]; Suit2-07, GEM curve fit) was 0.19 and the Curve effect size ([3]; Suit2-07, GEM curve fit) was 0.81. For the same compound, the Curve slope ([3]; Suit2-07, GEM curve fit) was 1.96, the Curve top ([3]; Suit2-07, GEM curve fit) was 1.00 and the AUC ([3]; Suit2-07, GEM curve fit, in %) was 46.93. It also gave an EC50 ([4]; HuP-T4, read-out: EC50) of 3.08 nM, an EC50 ([4]; HuP-T4, read-out: pEC50 (converted)) of 3.09 nM and a Reponse ([4]; HuP-T4, R1, 13.72 nM) of 312040. For the same compound, the Reponse ([4]; HuP-T4, R1, 370.37 nM) was 231280, the Reponse ([4]; HuP-T4, R1, 1111.11 nM) was 191240 and the Reponse ([4]; HuP-T4, R1, 3333.33 nM) was 187320. The Reponse ([4]; HuP-T4, R1, 10000 nM) was 235360, the Reponse ([4]; HuP-T4, R2, 13.72 nM) was 353160 and the Reponse ([4]; HuP-T4, R2, 41.15 nM) was 432720. For the same compound, the Reponse ([4]; HuP-T4, R2, 123.46 nM) was 313280, the Reponse ([4]; HuP-T4, R2, 370.37 nM) was 314320 and the Curve bottom ([4]; HuP-T4, GEM curve fit) was 0.12. The Curve effect size ([4]; HuP-T4, GEM curve fit) was 0.88, the Curve slope ([4]; HuP-T4, GEM curve fit) was 4.56 and the Curve top ([4]; HuP-T4, GEM curve fit) was 0.99. For the same compound, the AUC ([4]; HuP-T4, GEM curve fit, in %) was 35.37, the EC50 ([5]; MIA PaCa-2, read-out: EC50,GEM) was at least 10 nM and the EC50 ([5]; MIA PaCa-2, read-out: EC50) was 13.6 nM. For the same compound, the EC50 ([5]; MIA PaCa-2, read-out: pEC50 (converted)) was 13.5 nM, the Reponse ([5]; MiaPaCa-2, R1, 13.72 nM) was 4319964 and the Reponse ([5]; MiaPaCa-2, R1, 41.15 nM) was 2249377. The Reponse ([5]; MiaPaCa-2, R1, 123.46 nM) was 1464819, the Reponse ([5]; MiaPaCa-2, R1, 370.37 nM) was 1237785 and the Reponse ([5]; MiaPaCa-2, R1, 1111.11 nM) was 1237333. It also gave a Reponse ([5]; MiaPaCa-2, R1, 3333.33 nM) of 1424454, a Reponse ([5]; MiaPaCa-2, R1, 10000 nM) of 1232056 and a Reponse ([5]; MiaPaCa-2, R2, 13.72 nM) of 3184320. It also gave a Reponse ([5]; MiaPaCa-2, R2, 41.15 nM) of 1827720, a Reponse ([5]; MiaPaCa-2, R2, 123.46 nM) of 1167560 and a Reponse ([5]; MiaPaCa-2, R2, 370.37 nM) of 1308800. The Reponse ([5]; MiaPaCa-2, R2, 1111.11 nM) was 1074400, the Reponse ([5]; MiaPaCa-2, R2, 3333.33 nM) was 1132280 and the Reponse ([5]; MiaPaCa-2, R2, 10000 nM) was 1191360. The Curve bottom ([5]; MiaPaCa-2, GEM curve fit) was 0.18, the Curve effect size ([5]; MiaPaCa-2, GEM curve fit) was 0.81 and the Curve slope ([5]; MiaPaCa-2, GEM curve fit) was 1.52. The Curve top ([5]; MiaPaCa-2, GEM curve fit) was 0.96, the AUC ([5]; MiaPaCa-2, GEM curve fit, in %) was 51.47 and the Reponse ([6]; BxPC-3, R1, 41.15 nM) was 1061560. The Reponse ([6]; BxPC-3, R1, 123.46 nM) was 1199800, the Reponse ([6]; BxPC-3, R1, 370.37 nM) was 1177280 and the Reponse ([6]; BxPC-3, R1, 1111.11 nM) was 1044400. For the same compound, the Reponse ([6]; BxPC-3, R1, 3333.33 nM) was 1111640, the Reponse ([6]; BxPC-3, R1, 10000 nM) was 1115240 and the Reponse ([6]; BxPC-3, R2, 13.72 nM) was 1392120. For the same compound, the Reponse ([6]; BxPC-3, R2, 41.15 nM) was 1083440, the Reponse ([6]; BxPC-3, R2, 123.46 nM) was 1301640 and the Reponse ([6]; BxPC-3, R2, 370.37 nM) was 1316120. It also gave a Reponse ([6]; BxPC-3, R2, 1111.11 nM) of 1172200, a Reponse ([6]; BxPC-3, R2, 3333.33 nM) of 1101720 and a Reponse ([6]; BxPC-3, R2, 10000 nM) of 982880. For the same compound, the Curve bottom ([6]; BxPC-3, GEM curve fit) was 0.26, the Curve effect size ([6]; BxPC-3, GEM curve fit) was 0.75 and the Curve slope ([6]; BxPC-3, GEM curve fit) was 1.82. It also gave a Curve top ([6]; BxPC-3, GEM curve fit) of 1.03, an AUC ([6]; BxPC-3, GEM curve fit, in %) of 45.89 and an EC50 ([6]; read-out: EC50) of 3.59 nM. For the same compound, the EC50 ([6]; read-out: pEC50 (converted)) was 3.55 nM.
